Laboratory results from publication PMC10313047, “During heat stress in Myxococcus xanthus, the CdbS PilZ domain protein, in concert with two PilZ-DnaK chaperones, perturbs chromosome organization and accelerates cell death” (PLOS Genetics, 2023).

Target: T1, His6-CdbS (Myxococcus xanthus, UniProt Q1D4C1)
T1 construct: gene MXAN_4328; full-length stand-alone PilZ protein (PilZ domain residues 7-82), N-terminal His6 tag (pET28a, pMS007), made in E. coli Arctic Express (DE3) RP
Assay: bio-layer interferometry, streptavidin sensor, equilibrium one-site fit
Assay type: binding
Settings: labelled compound (biotinylated c-di-GMP immobilised on sensor); 50 mM Tris-HCl pH 7, 150 mM NaCl, 10% glycerol, 0.02% Tween-20

T1 sequence (Q1D4C1 entry or part of it): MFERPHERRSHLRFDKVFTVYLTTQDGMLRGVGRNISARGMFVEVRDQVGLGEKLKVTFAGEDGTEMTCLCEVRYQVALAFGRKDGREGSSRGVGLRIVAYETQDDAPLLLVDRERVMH

`Nc1nc2c(ncn2[C@@H]2O[C@@H]3COP(=O)(O)O[C@H]4[C@@H](O)[C@H](n5cnc6c(=O)[nH]c(N)nc65)O[C@@H]4COP(=O)(O)O[C@H]3[C@H]2O)c(=O)[nH]1` [c-di-GMP] was tested. Which Kd did it give?
The Kd was “His6-CdbS^R9A did not detectably bind c-di-GMP”.
